Source: patent publication US20250018014A1, “METHOD FOR TREATING AND/OR PREVENTING REGNASE-1-RELATED DISEASE” (OSAKA UNIVERSITY, priority 2018, published 2025)
Residues, ends and D or L forms follow the SMILES beside them.

Biological target: T1, FL_Reg1 (Homo sapiens, UniProt Q5D1E8)
T1 construct: made in house; host or cells: Expi293 cells
T1 sequence (Q5D1E8 1-599): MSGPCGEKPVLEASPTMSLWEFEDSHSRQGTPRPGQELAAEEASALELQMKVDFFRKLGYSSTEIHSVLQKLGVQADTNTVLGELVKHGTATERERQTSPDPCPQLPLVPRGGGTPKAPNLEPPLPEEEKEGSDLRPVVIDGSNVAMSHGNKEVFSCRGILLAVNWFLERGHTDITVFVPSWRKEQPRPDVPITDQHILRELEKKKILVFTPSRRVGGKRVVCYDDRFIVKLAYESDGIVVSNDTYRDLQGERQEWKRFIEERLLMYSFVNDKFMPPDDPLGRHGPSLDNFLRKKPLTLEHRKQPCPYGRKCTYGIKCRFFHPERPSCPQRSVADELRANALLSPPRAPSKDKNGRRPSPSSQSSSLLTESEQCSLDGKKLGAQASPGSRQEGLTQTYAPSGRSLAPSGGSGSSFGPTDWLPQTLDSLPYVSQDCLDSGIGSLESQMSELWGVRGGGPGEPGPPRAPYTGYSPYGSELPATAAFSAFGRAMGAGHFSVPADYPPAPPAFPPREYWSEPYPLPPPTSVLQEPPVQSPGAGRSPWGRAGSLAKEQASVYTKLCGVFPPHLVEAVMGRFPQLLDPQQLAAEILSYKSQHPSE
Assay: Binding of Regnase-1 and peptide compounds (affinity mass analysis, SEC then LC/MS)
Settings: 1 μM FL_Reg1, final compound concentration 1 μM, 23° C. for one hour
Protocol: To a 96 PP plate (Greiner bio-one, 651201) coated with lipidure (Lipidure-CM5206) (NOF CORPORATION, 71S42000001), 2 μL of Tris-Buffer (25 mM Tris-NaOH pH 8.3, 300 mM NaCl, 1 mM DTT, 1 mM EDTA, 1% DMSO) was dispensed, and then 1 mM DMSO sample was added at 20 nL each with a LABCYTE ECHO (registered trademark) acoustic dispensing system. Furthermore, 18 μL of protein prepared at 1 μM FL_Reg1 in advance using Tris-Buffer was added (final compound concentration: 1 μM), and the mixture was incubated in the dark at 23° C. for one hour. Then, to a 96-well, 400 μL, Hydrophilic PVDF 0.45 μm, Long drip (Harvard, 74-5556), 100 μL of P-2, Fine (Bio-Rad, 1504114) which had been swollen in advance was added, and conditioning was performed by centrifuging several times at 2000× G for two minutes using the buffer. Next, 20 μL of the sample after incubation was added to the conditioned 96-well, 400 μL, Hydrophilic PVDF 0.45 μm, Long drip, and SEC treatment was performed by centrifugation at 2000×G for two minutes. To the liquid from SEC, 32 μL of acetonitrile (LC/MS grade, FUJIFILM Wako Pure Chemical Industries, Ltd.) supplemented with 0.1% formic acid (LC/MS grade, 067-04531, FUJIFILM Wako Pure Chemical Industries, Ltd.) was added, and this was centrifuged at 1800×G for five minutes, and the supernatant was used as an analysis sample for LC/MS measurement. Binding to Regnase-1 was detected for all of the peptide compounds, PP1 to PP25.

| AS-MS ratio(%) | SMILES |
| --- | --- |
| 3.7 | CC[C@H](C)[C@@H]1NC(=O)[C@H](CO)NC(=O)[C@H](CCCNC(=N)N)NC(=O)[C@H](Cc2ccc(O)cc2)NC(=O)[C@H](Cc2ccc(O)cc2)NC(=O)[C@H](Cc2c[nH]c3ccccc23)NC(=O)[C@H](CO)NC(=O)[C@H](CCC(N)=O)NC(=O)[C@H](Cc2ccc(O)cc2)NC(=O)[C@H](CC(N)=O)NC(=O)[C@H](C)N(C)C(=O)C[C@@H](C(=O)N2CCCC2)NC(=O)[C@H](Cc2c[nH]c3ccccc23)NC1=O [PP10] (HELM PEPTIDE1{[meA].N.Y.Q.S.W.Y.Y.R.S.I.W.D.[C1CCN([*:1])C1]}$PEPTIDE1,PEPTIDE1,1:R1-13:R3$$$V2.0) |
| 14.5 | CC[C@H](C)[C@@H]1NC(=O)[C@H](CCCNC(=N)N)NC(=O)[C@H](Cc2ccc(O)cc2)NC(=O)[C@H](Cc2c[nH]c3ccccc23)NC(=O)[C@H](CO)NC(=O)[C@H](CC(N)=O)NC(=O)[C@H](C)N(C)C(=O)C[C@@H](C(=O)N2CCCC2)NC(=O)[C@H](CC(C)C)NC(=O)CNC(=O)[C@H](Cc2c[nH]c3ccccc23)NC1=O [PP22] (HELM PEPTIDE1{[meA].N.S.W.Y.R.I.W.G.L.D.[C1CCN([*:1])C1]}$PEPTIDE1,PEPTIDE1,1:R1-11:R3$$$V2.0) |
| 15.1 | CC[C@H](C)[C@@H]1NC(=O)[C@H](CCCCN)NC(=O)[C@H](Cc2ccc(O)cc2)NC(=O)[C@H](Cc2c[nH]c3ccccc23)NC(=O)[C@H](CO)NC(=O)[C@H](CC(N)=O)NC(=O)[C@H](C)N(C)C(=O)C[C@@H](C(=O)N2CCCC2)NC(=O)[C@H](CC(C)C)NC(=O)CNC(=O)[C@H](Cc2c[nH]c3ccccc23)NC1=O [PP21] (HELM PEPTIDE1{[meA].N.S.W.Y.K.I.W.G.L.D.[C1CCN([*:1])C1]}$PEPTIDE1,PEPTIDE1,1:R1-11:R3$$$V2.0) |
| 66.7 | CC[C@H](C)[C@@H]1NC(=O)[C@H](CC(N)=O)NC(=O)[C@H]([C@@H](C)CC)NC(=O)[C@H](Cc2ccc(O)cc2)NC(=O)[C@H](Cc2c[nH]c3ccccc23)NC(=O)[C@H](CO)NC(=O)[C@H](CC(N)=O)NC(=O)[C@H](C)N(C)C(=O)C[C@@H](C(=O)N2CCCC2)NC(=O)[C@H](Cc2c[nH]cn2)NC(=O)CNC(=O)[C@H](Cc2c[nH]c3ccccc23)NC1=O [PP15] (HELM PEPTIDE1{[meA].N.S.W.Y.I.N.I.W.G.H.D.[C1CCN([*:1])C1]}$PEPTIDE1,PEPTIDE1,1:R1-12:R3$$$V2.0) |
| 17.9 | CC[C@H](C)[C@@H]1NC(=O)[C@H](CC(N)=O)NC(=O)[C@H](Cc2ccc(O)cc2)NC(=O)[C@H](Cc2c[nH]c3ccccc23)NC(=O)[C@H](CO)NC(=O)[C@H](CC(N)=O)NC(=O)[C@H](CO)NC(=O)[C@H](Cc2ccccc2)NC(=O)[C@H](CC(N)=O)NC(=O)[C@H](C)N(C)C(=O)C[C@@H](C(=O)N2CCCC2)NC(=O)[C@H](Cc2c[nH]c3ccccc23)NC1=O [PP16] (HELM PEPTIDE1{[meA].N.F.S.N.S.W.Y.N.I.W.D.[C1CCN([*:1])C1]}$PEPTIDE1,PEPTIDE1,1:R1-12:R3$$$V2.0) |
